Assay: physchem
Details: octanol/water

SMILES	logD
Cc1onc(-c2ccc(Cl)cc2)c1-c1ccc2cc(CCN3CCC[C@H]3C)ccc2n1	4.9
N#Cc1cncc(-c2cc3sc(N4CCC(N5CCCCC5)CC4)nc3cn2)c1	1
O=C(C1CC(Oc2ccc(F)cc2)CN1)N1CCCN(C2CCC2)CC1 (stereo not given)	0.2
Cc1nc(N2CCCC2)ncc1-c1ccc2cc(CCN3CCC[C@H]3C)ccc2n1	2.7
Cn1c(-c2ccc(OC3CCN(C4CCCC4)CC3)cc2)nc2ccccc2c1=O	2.6
Cc1ccc(-c2ccc3cc(CCN4CCC[C@H]4C)ccc3n2)cn1	2.8
C[C@@H]1CCCN1CCc1ccc2nc(-c3cnccn3)ccc2c1	1.8
C[C@@H]1CCCN1CCc1ccc2nc(-c3csc(-c4ccccc4)n3)ccc2c1	4.4
COc1cccc2c1OC(c1ccc(OCCCN3CCC[C@H](C)C3)cc1)C(C)S2(=O)=O (stereo not given in full)	3.3
C[C@@H]1CCCN1CCc1ccc2nc(-c3csc(-c4cc(Cl)nc(Cl)c4)n3)ccc2c1	5
Cc1cccc2c(=O)n(-c3ccc(OCCCN4CCCC4)cc3)c(C)nc12	2.2
COCCNS(=O)(=O)c1ccc(-c2ccc(CCN3CCC[C@H]3C)cc2)cc1	1.8
Fc1ccc(-c2cnc3nc(N4CCC(N5CCCCC5)CC4)sc3c2)cn1	1.5
Cc1c(-c2ccc3cc(CCN4CCC[C@H]4C)ccc3n2)cnn1C	2.5
Nc1cnc(-c2cnc3nc(N4CCC(N5CCCCC5)CC4)sc3c2)cn1	-0.1
C=C(N(C)Cc1ccc(-c2ccccc2)cc1)N1CCN(C(C)C)CC1	1.8
CCNS(=O)(=O)c1ccc(-c2ccc(CCN3CCC[C@H]3C)cc2)cc1	2.3
C[C@@H]1CCCN1CCc1ccc2nc(-c3cnc4c(c3)OCO4)ccc2c1	2.8
C[C@@H]1CCCN1CCc1ccc2nc(-c3ccc(Cl)nc3)ccc2c1	3.4
CCCNS(=O)(=O)c1ccc(-c2ccc(CCN3CCC[C@H]3C)cc2)cc1	2.8
O=c1c2ccccc2nc(-c2ccc(OCCCN3CCCCC3)cc2)n1-c1ccccc1	3.8
O=C(C1CC(Oc2ccc(Cl)cc2)CN1)N1CCCN(C2CCC2)CC1 (stereo not given)	0.6

SMILES	logD
CCn1c(-c2ccc(OCCCN3CCCCC3)cc2)nc2ccccc2c1=O	2.6
c1ccc([C@@H]2Sc3ccccc3O[C@@H]2c2ccc(OCCCN3CCCC3)cc2)cc1	4.5
C[C@@H]1CCCN1CCc1ccc2nc(-c3ccc(-n4ccc(=O)cc4)cc3)ccc2c1	3.4
CCCc1nc2ccccc2c(=O)n1-c1ccc(OCCCN2CCCC2)cc1	2.8
COc1cc2c(cc1OC)CN(C(=O)N1CCN(C(C)C)CC1)CC2	1
N#Cc1cncc(-c2cnc3nc(N4CCC(N5CCCCC5)CC4)sc3c2)c1	0.8
C[C@@H]1CCCN1CCc1ccc2nc(-c3nc4ccccc4s3)ccc2c1	4.1
CC(C)N1CCN(C(=O)N2CCC(C(=O)OC(C)(C)C)CC2)CC1	0.6
Cc1[nH]ncc1-c1ccc2cc(CCN3CCC[C@H]3C)ccc2n1	2.4
Cc1ccc2cc(CCN3CCC[C@H]3C)ccc2n1	2
N#Cc1cc(-c2cnc3nc(N4CCC(N5CCCCC5)CC4)sc3c2)ccc1F	2.1
COc1ccc(-c2cc3sc(N4CCC(N5CCCCC5)CC4)nc3cn2)cn1	1.6
Fc1ccc(-c2cc3sc(N4CCC(N5CCCCC5)CC4)nc3cn2)cn1	1.7
c1cc(C2CCCCO2)ccc1OCCCN1CCCCC1 (stereo not given)	2.1
COc1nccc2c(=O)n(C)c(-c3ccc(OC4CCN(C5CCC5)CC4)cc3)nc12	1.6
c1cc(-c2ccc3c(c2)OCO3)ccc1OCCCN1CCCCC1	2.7
O=C(c1ccccc1-c1ccc(OCCCN2CCCCC2)cc1)N1CCCCC1	3.2
CC(C)N1CCN(C(=O)N2Cc3ccccc3C2)CC1	0.7
c1ccc(-c2ccc(OCCCN3CCCCC3)cc2)cc1	2.9
COC(=O)c1c(C)noc1-c1ccc2cc(CCN3CCC[C@H]3C)ccc2n1	2.5
Oc1ccc(-c2cc3sc(N4CCC(N5CCCCC5)CC4)nc3cn2)cn1	1.4
Cc1nc2ccc(F)cc2c(=O)n1-c1ccc(OCCCN2CCCC2)cc1	1.9

SMILES	logD
COc1cccc2c(=O)n(-c3ccc(OCCCN4CCCC4)cc3)c(C)nc12	1.7
O=C(/C=C/c1ccc(C(F)(F)F)cc1)N1CCC[C@H]1CN1CCCC1	2.4
c1coc(-c2ccc(OCCCN3CCCCC3)cc2)c1	2.3
C[C@@H]1CCCN1CCc1ccc(-c2ccc(S(=O)(=O)NC3CCC3)cc2)cc1	2.9
C[C@@H]1CCCN1CCc1ccc2nc(-c3cncnc3)ccc2c1	1.9
Cc1nc(-c2cnccn2)sc1-c1ccc2cc(CCN3CCC[C@H]3C)ccc2n1	2.7
O=C(NCc1ccc(C(F)(F)F)cc1)N1CCC[C@H]1CN1CCCC1	1.8
COC1CCN(S(=O)(=O)c2ccc(-c3ccc(CCN4CCC[C@H]4C)cc3)cc2)CC1	2
c1ncc(-c2cnc3nc(N4CCC(N5CCCCC5)CC4)sc3c2)cn1	0.3
CC1CCN(c2ccc3cc(CCN4CCC[C@H]4C)ccc3n2)CC1	2.9
Cc1ccc(-c2cc3sc(N4CCC(N5CCCCC5)CC4)nc3cn2)cn1	1.4
O=C(C1CC(Oc2cccc(F)c2)CN1)N1CCCN(C2CCC2)CC1 (stereo not given)	0.2
CC1COCC(C)N1S(=O)(=O)c1ccc(-c2ccc(CCN3CCC[C@H]3C)cc2)cc1 (stereo not given in full)	2.6
Cc1onc(-c2ccccc2)c1-c1ccc2cc(CCN3CCC[C@H]3C)ccc2n1	4.2
Cc1cc(-c2ccc3cc(CCN4CCC[C@H]4C)ccc3n2)nc(-c2ccccc2)n1	4.2
C[C@@H]1CCCN1CCc1ccc(-c2ccc(S(=O)(=O)N3CCS(=O)(=O)CC3)cc2)cc1	1.6
O=C(C1CC(Oc2cccc(Cl)c2)CN1)N1CCCN(C2CCC2)CC1 (stereo not given)	0.6
c1cc(C2CCCCC2)ccc1OCCCN1CCCCC1	3.6
CC(C)N1CCN(C(=O)N2CCc3ccccc3C2)CC1	1
COc1cccc2c1OC(c1ccc(OCCCN3CCC[C@H]3C)cc1)C(C)S2(=O)=O (stereo not given in full)	2.6
COc1cc(-c2cnc3nc(N4CCC(N5CCCCC5)CC4)sc3c2)ccn1	1.4
COC(=O)N1CC(Oc2ccc(F)cc2)CC1C(=O)N1CCCN(C2CCC2)CC1 (stereo not given)	1.8

SMILES	logD
C[C@@H]1CCCN1CCc1ccc2nc(C(C)(C)C)ccc2c1	3.6
CC1=C(c2ccc(OCCCN3CCCC3)cc2)Oc2ccccc2S1(=O)=O	1.9
CC(C)N1CCN(C(=O)N2CCC(Cc3ccccc3)CC2)CC1	2
Cc1nc(C)c(-c2ccc3cc(CCN4CCCC4C)ccc3n2)cc1C(N)=O (stereo not given)	2.1
Cc1c(-c2ccc3cc(CCN4CCC[C@H]4C)ccc3n2)sc2ncnn12	2.8
Cc1nc(C)c(-c2ccc3cc(CCN4CCCC4C)ccc3n2)cc1C#N (stereo not given)	2.9
Cc1cc(C(F)(F)F)cc(-n2ncc(-c3ccc4cc(CCN5CCC[C@H]5C)ccc4n3)c2C)n1	4.6
c1ncc(-c2cc3sc(N4CCC(N5CCCCC5)CC4)nc3cn2)cn1	0.5
C[C@@H]1CCCN1CCc1ccc2nc(-c3nccs3)ccc2c1	2.5
Cc1nc2cc(F)ccc2c(=O)n1-c1ccc(OCCCN2CCCC2)cc1	1.9
C[C@@H]1CCCN1CCc1ccc(-c2ccc(S(=O)(=O)NCc3ccncc3)cc2)cc1	2.4
COc1ccc2nc(-c3ccc(OC4CCN(C5CCC5)CC4)cc3)n(C)c(=O)c2c1	2.2
Nc1ccc(-c2cnc3nc(N4CCC(N5CCCCC5)CC4)sc3c2)cn1	0.7
Cc1nc2cccc(C(F)(F)F)c2c(=O)n1-c1ccc(OCCCN2CCCC2)cc1 [MK-0249]	2.6
COc1cccc2nc(-c3ccc(OC4CCN(C5CCC5)CC4)cc3)n(C)c(=O)c12	2.2
c1ncc(-c2ccc(OCCCN3CCCCC3)cc2)o1	1.1
COc1cccc2nc(C)n(-c3ccc(OCCCN4CCCC4)cc3)c(=O)c12	1.7
Cc1nc(-c2cccs2)sc1-c1ccc2cc(CCN3CCC[C@H]3C)ccc2n1	4.6
C[C@@H]1CCCN1CCc1ccc2nc(-c3cc(Br)no3)ccc2c1	3.4
C[C@@H]1CCCN1CCc1ccc2nc(-c3ccc(C#N)s3)ccc2c1	3.8
Cc1nc2c(F)cccc2c(=O)n1-c1ccc(OCCCN2CCCC2)cc1	1.9
C[C@@H]1CCCN1CCc1ccc2nc(-c3cnc(-c4ccccc4)s3)ccc2c1	4.3

SMILES	logD
CC(C)n1c(-c2ccc(OCCCN3CCCCC3)cc2)nc2ccccc2c1=O	3
O=c1c2ccccc2nc(-c2ccccc2)n1-c1ccc(OCCCN2CCCC2)cc1	3.4
CCOc1ccc(-n2ncc(-c3ccc4cc(CCN5CCC[C@H]5C)ccc4n3)c2C)nn1	3.8
CC(=O)Nc1ccc(-c2cnc3nc(N4CCC(N5CCCCC5)CC4)sc3c2)cn1	0.6
C[C@@H]1CCCN1CCc1ccc2nc(-c3c(O)ccnc3C(F)(F)F)ccc2c1	3.6
COc1cccc2c1OC(c1ccc(OCCCN3CCC[C@@H]3C)cc1)C(C)S2(=O)=O (stereo not given in full)	2.6
COc1cccc2c1S(=O)(=O)C(C)C(c1ccc(OCCCN3CCCC3)cc1)O2 (stereo not given)	2.2
C[C@@H]1CCCN1CCc1ccc2nc(C3=NCCS3)ccc2c1	2.7
CCC(CO)NS(=O)(=O)c1ccc(-c2ccc(CCN3CCC[C@H]3C)cc2)cc1 (stereo not given in full)	2.3
Cn1nccc1-c1ccc(OCCCN2CCCCC2)cc1	1.8
CC1CCCN1CCc1ccc2nc(-c3ccoc3)ccc2c1 (stereo not given)	2.7
C[C@@H]1CCCN1CCc1ccc2nc(-c3ccc(N4CCCCC4)cc3)ccc2c1	3.1
Cc1nc2cc(C(F)(F)F)ccc2c(=O)n1-c1ccc(OCCCN2CCCC2)cc1	2.6
Nc1cnc(-c2cc3sc(N4CCC(N5CCCCC5)CC4)nc3cn2)cn1	0.2
N#Cc1ccc(OC2CNC(C(=O)N3CCCN(C4CCCC4)CC3)C2)cc1 (stereo not given)	0.6
C[C@@H]1CCCN1CCc1ccc2nc(-c3c(-c4ccccc4)nn(C)c3Cl)ccc2c1	4.7
Cc1nc(-c2ccccn2)sc1-c1ccc2cc(CCN3CCC[C@H]3C)ccc2n1	3.9
Fc1ncccc1-c1cnc2nc(N3CCC(N4CCCCC4)CC3)sc2c1	1.5
Cc1nc(C)c(-c2ccc3cc(CCN4CCC[C@H]4C)ccc3n2)s1	2.9
C[C@@H]1CCCN1CCc1ccc(-c2ccc(S(=O)(=O)N3CCC(O)C3)cc2)cc1 (stereo not given in full)	1.5
CC1CCCN1CCc1ccc2nc(-c3ccsc3)ccc2c1 (stereo not given)	3.3
C[C@@H]1CCCN1CCc1ccc(-c2ccc(S(=O)(=O)N3CCCCC3)cc2)cc1	3.1

Source: ChEMBL document CHEMBL1821550 (Bioorg Med Chem Lett, 2011)
